The values below come from US20050048128A1, “Process for producing collagen production enhancers and use thereof” (priority 2001, published 2005).

What all share (format): cell-based
Series [1] relates to new-born hamster fibroblasts. Nature of the series: Collagen production by new-born hamster fibroblasts, [2,3-3H] proline taken into collagen (Experiment 1). Conditions: for Relative amount of collagen production: no addition = 100, relative value ± SD. As to the method:
According to conventional manner, the dorsum skin of a new-born hamster was cut and detached, and fibroblasts were isolated from the detached skin. The preparation method is outlined below: To detach the epidermis from the dermis, the debris was placed and allowed to stand at 4° C. overnight in Eagle's minimum essential medium, commercialized by Nippon Suisan Kaisha, Ltd., Tokyo, Japan, containing 0.03 mM Ca^2+, in which 500 units/ml of a dispase commercialized by Godo Shusei Co., Ltd., Tokyo, Japan, was dissolved. The detached dermis was kept at 37° C. for one hour in Dulbecco minimum essential medium (abbreviated as “D-MEM”, hereinafter), commercialized by Nippon Suisan Kaisha, Ltd., Tokyo, Japan, in which 0.25% (v/v) of a collagenase commercialized by Amano Enzyme, Aichi, Japan, was dissolved. Thereafter, the resulting cell debris of the dermis were pipetted into a cell suspension with singly dispersed cells of new-born hamster fibroblasts, followed by collecting the cells by centrifugation. The cells were suspended in phosphate-buffered saline and allowed to stand for 30 min, followed by centrifugally collecting the resulting supernatant with fibroblasts and re-suspending the cells in D-MEM supplemented with 10% (v/v) of a fetal bovine serum (abbreviated as “FCS”, hereinafter) commercialized by GIBCO Bethesda Research Laboratories, Bethesda, Md., USA, into a cell suspension for use in the following assay for collagen production level.
The following cells were cultured in an incubator with 5% (v/v) CO2 at 37° C. Three milliliter aliquots of the cell suspension of new-born hamster fibroblasts, prepared in the above 3, were seeded in 6-well plates to give a cell density of 4×10^5 cells/well and cultured for seven days. To D-MEM supplemented with 10% (v/v) FCS was added and dissolved therein L-ascorbic acid to give a concentration of 0.0, 0.1, 0.2, 0.5, 1.0, 2.0, 5.0, 10.0, 20.0, 50.0, 100.0, or 200.0 μg/ml. Similarly as above, either a heated royal jelly or an unheated royal jelly was added to and dissolved in D-MEM supplemented with 10% (v/v) FCS to give a concentration of 0.0, 0.1, 0.2, 0.5, 1.0, 2.0, 5.0, 10.0, 20.0, 50.0, 100.0, 200.0, or 500.0 μg/ml. Five milliliter aliquot of any one of the above media supplemented with L-ascorbic acid or the heated or unheated royal jelly was added to each well of the plates, which had been removed off the culture supenatants of fibroblast cultures, followed by culturing the cells for three days. Thereafter, the supernatant in each well was replaced with five milliliters of a fresh medium supplemented with the same concentration of L-ascorbic acid or the heated or unheated royal jelly as mentioned-above, and the cells were sequentially cultured for three days, replaced with one milliliter of a fresh medium having the same concentration of L-ascorbic acid or the heated or unheated royal jelly as mentioned-above, cultured for three hours, admixed with [2,3-^3H] proline (40 Ci/mmol) commercialized by Amersham Corp., Div. Amersham International, Ill., USA, which had been dissolved in D-MEM to give a concentration of 3 μCi/well, and further cultured overnight. All the culture media, including those supplemented with L-ascorbic acid or the heated or unheated royal jelly, used in this experiment, were filtered with a 0.22 μm filter before use.
In the above 4, after the fibroblasts of new-born hamster were cultured in the presence of [2,3-^3H] proline, collagen was extracted from the cells in a usual manner and quantified for [2,3-^3H] proline taken thereinto. The quantitation was carried out by the method disclosed by Seong-Jin Kim et al. in Dermatologic Surgery, Vol. 24, pp. 1,054-1,058 (1998). […]

The test system of series [2] is new-born hamster fibroblasts. Nature of the series: Influence of royal jelly on the collagen production by L-ascorbic acid, significant difference test (Experiment 2). As to the method:
Using the assay system for the collagen production level used in Experiment 1, it was studied the influence of royal jellies on the collagen production by L-ascorbic acids: New-born hamster fibroblasts, prepared similarly as the method in Experiment 1, were seeded in 6-well plates and cultured for seven days. […] In this experiment, three wells were used for each concentration. The results were evaluated whether there existed a significant difference between the count in a control system and those in the test systems with different concentrations of heated or unheated royal jelly, based on the count for the control system with no royal jelly that was detected by a liquid scintillation counter, as a control.

Series [3] has as its system new-born hamster fibroblasts. Nature of the series: Collagen production by L-ascorbic acid 2-glucoside or sodium L-ascorbate with or without royal jelly, seven-day culture (Experiment 3). Conditions: for Collagen production level: no additions = 100, relative value ± SD. On the procedure:
Royal jelly was dissolved in D-MEM medium containing 10% (v/v) FCS to give a concentration of 200 μg/ml, and then L-ascorbic acid 2-glucoside was dissolved in the resulting medium to give a concentration of 0.2, 0.5 or 1.0 μg/ml in terms of the weight of L-ascorbic acid. As controls, L-ascorbic acid 2-glucoside was dissolved in D-MEM medium, supplemented with 10% (v/v) FCS but with no royal jelly, to give a concentration of 0.2, 0.5, or 1.0 μg/ml in terms of the weight of L-ascorbic acid. Similarly as in Experiment 1, new-born hamster fibroblasts were cultured for seven days in 6-well plates and further cultured for seven days after the supernatant in each plate was replaced with 5 ml of any of the above media, which dissolved the above-identified L-ascorbic acid 2-glucoside and royal jelly, or those prepared for use as controls. Thereafter, the collagen production level in each well was determined by the same method as in Experiment 1. As a negative control, a medium, supplemented with 200 μg/ml of royal jelly and 1 μg/ml of sodium L-ascorbate in terms of the weight of L-ascorbic acid, was added to the fibroblasts similarly as above, and the cells were cultured for seven days.
The fibroblasts with no addition of L-ascorbic acid 2-glucoside gave a lower collagen production level similarly as that of the control in Experiment 1, independently of the addition of royal jellies. When ascorbic acid 2-glucoside was added to give a concentration of 0.2 μg/ml or more, the collagen production level was enhanced as compared with the system with no L-ascorbic acid 2-glucoside, and the level was more enhanced by the addition of royal jellies.

In series [4] the test system is new-born hamster fibroblasts. The series is described as above. Conditions: 1 μg/ml L-ascorbic acid, three days, medium replaced with fresh one, three further days; data omitted.
The subject of series [5] is new-born hamster fibroblasts. In words: TGF-β production by fibroblasts, TGF-β1 Emax ImmunoAssay System (Experiment 4). Conditions: 24 hours, no additions = 100, relative value ± SD. On the procedure:
To study the mechanism of the enhancement of collagen production by royal jellies and/or L-ascorbic acids, the influence of royal jelly and/or L-ascorbic acid 2-glucoside, which had been reported to enhance the production of mRNA for collagen in fibroblasts, on the production of TGF-β was examined by the following method: • (1) Assay for TGF-β: • TGF-β was assayed on TGF-β1 Emax ImmunoAssay System, commercialized by Promega Corporation, Tokyo, Japan. • (2) Assay for TGF-β produced by fibroblasts in the presence of royal jelly and/or L-ascorbic acid 2-glucoside: • TGF-β was assayed by inoculating 1×10^4 cells/well of new-born hamster fibroblasts, prepared by the method similarly as in Experiment 1, to 96-well microplates, commercialized by Nippon Becton. […]

Setting [6] is: L-ascorbic acid 2-glucoside 0.2 μg/ml (as L-ascorbic acid) with royal jelly 200 μg/ml.
[7] abbreviates: L-ascorbic acid 2-glucoside 0.2 μg/ml (as L-ascorbic acid), no royal jelly.

Consider `O=C1O[C@H]([C@@H](O)CO)C([O-])=C1O.[Na+]` [L-ascorbic acid, Sodium L-ascorbate], for which the “Relative amount of collagen production” value in series [1] (L-ascorbic acid 0.1 μg/ml) came out at 95 ± 13; in series [1] (L-ascorbic acid 0.2 μg/ml) it was 118 ± 26; in series [1] (L-ascorbic acid 0.5 μg/ml), 210 ± 33; in series [1] (L-ascorbic acid 1.0 μg/ml), 482 ± 89; in series [1] (L-ascorbic acid 2.0 μg/ml), 1497 ± 155; in series [1] (L-ascorbic acid 5.0 μg/ml) it was 1755 ± 151. Also, the “Relative amount of collagen production” value in series [1] (L-ascorbic acid 10.0 μg/ml) is 2089 ± 160; in series [1] (L-ascorbic acid 20.0 μg/ml), 2456 ± 186; in series [1] (L-ascorbic acid 50.0 μg/ml) it was 2841 ± 341; in series [1] (L-ascorbic acid 100.0 μg/ml), 2956 ± 500; in series [1] (L-ascorbic acid 200.0 μg/ml), 2863 ± 456. In series [1] (sole use), the “Minimum effective amount of L-ascorbic acid for producing collagen” value came out at 0.5 µg/mL. For the same compound, the “Concentration at which the level of collagen production reached a plateau level” value in series [1] (sole use, no significant increase above) is at least 50 µg/mL. Further, the “Lowest concentration of L-ascorbic acid exerting the collagen-production action in combination with royal jelly” value in series [2] stood at 0.2 µg/mL.
For the compound Sodium L-ascorbate [L-ascorbic acid], the “Enhancement of collagen production, negative control” value in series [3] (1 μg/ml sodium L-ascorbate (as L-ascorbic acid) with 200 μg/ml royal jelly, seven days, medium not replaced) is given as “no enhancement of collagen production”. In addition, the “Collagen production with medium replacement” value in series [4] is reported as “enhanced level of collagen production”.
In the case of `O=C1O[C@H]([C@@H](O)CO)C(O)=C1O[C@H]1O[C@H](CO)[C@@H](O)[C@H](O)[C@H]1O` [L-ascorbic acid 2-glucoside], the Collagen production level in series [3] (setting [6]) amounted to 298 ± 30; in series [3] (setting [7]), 219 ± 31; in series [3] (L-ascorbic acid 2-glucoside 0.5 μg/ml (as L-ascorbic acid) with royal jelly 200 μg/ml) it was 1440 ± 70; in series [3] (L-ascorbic acid 2-glucoside 0.5 μg/ml (as L-ascorbic acid), no royal jelly), 527 ± 17; in series [3] (L-ascorbic acid 2-glucoside 1.0 μg/ml (as L-ascorbic acid) with royal jelly 200 μg/ml) it was 3168 ± 318; in series [3] (L-ascorbic acid 2-glucoside 1.0 μg/ml (as L-ascorbic acid), no royal jelly), 2250 ± 436. Further, in series [3] (compared with the system with no L-ascorbic acid 2-glucoside), the “Concentration of L-ascorbic acid 2-glucoside at which the collagen production level was enhanced” value was at least 0.2 µg/mL. Further, in series [3] (culture medium, seven days, compared with L-ascorbic acid), the “Stability dissolved in media” value is recorded as “advantageously more stable as compared with L-ascorbic acid”. Besides, the entries for the “Production level of TGF-β” value in series [5] (setting [6]) and in series [5] (setting [7]) were 132 ± 12 and 111 ± 5, respectively.
